This is an account of results in patent US6440935B1, “Inhibition of eucaryotic pathogens and neoplasms and stimulation of fibroblasts and lymphocytes with lytic peptides” (priority 1987, dated 2002).

Read-outs that look alike come from different tables or passages of the source. No end group written: not given here.

One experiment concerns Brucella abortus. Format: cell-based. The following applies: 50 μM.
Experiment [1] relates to Plasmodium falciparum in human red blood cells. To be noted: 24 hours.
Another experiment has as its system Saccharomyces cerevisiae. Nature of the experiment: Effect of lytic peptides on S. cerevisiae (plate count). To be noted: 1 hour at 37° C., PBS pH 6.8, 500 at 0 μM.
Another experiment relates to E. coli E/2/64. The experiment is described as follows: Lysozyme/cecropin synergism against E. coli (plate growth).

Regarding “Cecropin B: naturally occurring potent bacteriolytic peptide obtainable from insects; sequence in Table 1 (KWKVFKKIEKMGRNIRNGIVKAGPAIAVLGEAKAL; ends and bridges not checked; UniProt P01508 27-61, looked up)”, in the experiment on Brucella abortus, the “Results (growth of Brucella abortus)” value is given as “No growth”. Besides, the “3H-Hypoxanthine Uptake” value in experiment [1] (1 μM, P. falciparum 0.0625 PPRC) was determined as 380 cpm; in experiment [1] (1 μM, P. falciparum 0.125 PPRC), 565 cpm; in experiment [1] (1 μM, P. falciparum 0.25 PPRC), 1293 cpm; in experiment [1] (1 μM, P. falciparum 0.5 PPRC), 2860 cpm; in experiment [1] (20 μM, P. falciparum 0.0625 PPRC) it was 405 cpm; in experiment [1] (20 μM, P. falciparum 0.125 PPRC), 495 cpm. Moreover, the “3H-Hypoxanthine Uptake” value in experiment [1] (20 μM, P. falciparum 0.25 PPRC) is recorded as 1066 cpm; in experiment [1] (20 μM, P. falciparum 0.5 PPRC), 2333 cpm; in experiment [1] (200 μM, P. falciparum 0.0625 PPRC), 25 cpm; in experiment [1] (200 μM, P. falciparum 0.125 PPRC), 20 cpm; in experiment [1] (200 μM, P. falciparum 0.25 PPRC) it was 40 cpm; in experiment [1] (200 μM, P. falciparum 0.5 PPRC), 50 cpm. Also, the “Plate Count (Thousands)” value amounted to 500 Thousands in the experiment with Saccharomyces cerevisiae (5 μM), 75 Thousands in the experiment with Saccharomyces cerevisiae (50 μM) and 0 Thousands in the experiment on Saccharomyces cerevisiae (750 μM). Also, the “growth of E. coli (plate counts)” value in the experiment with E. coli E/2/64 (5 μM, 90 minutes at room temperature) is “no growth of E. coli”. Besides, in the experiment on E. coli E/2/64 (one nanomolar and one micromolar), the “growth of E. coli” value was “positive E. coli growth”.
